Results reported in patent publication US9187464B2, “TRPV4 antagonists” (GlaxoSmithKline Intellectual Property (No. 2) Limited, priority 2011, dated 2015).

These molecules were tested against T1, human TRPV4 (Homo sapiens, UniProt Q9HBA0) (assay: Ligand-gated assay (Fluo4 calcium, FLIPR; inhibition of agonist-induced activation)). Details: HEK-293-MSR-II cells transduced with BacMam human TRPV4; agonist at EC80.
T1 construct: expressed in transfected cells; host or cells: HEK-293-MSR-II cells transduced with 1% BacMam virus
Format: cell-based
How it was run: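 HEK-293-MSR-II cells BacMam-transduced with human TRPV4, loaded with 2 uM Fluo-4. Compound preincubated 10 min at room temperature in HBSS pH 7.4 plus 0.01% Chaps, then agonist added at its EC80. Inhibition of agonist-evoked calcium rise read on FLIPR; IC50 reported.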

T1 sequence (Q9HBA0 whole entry): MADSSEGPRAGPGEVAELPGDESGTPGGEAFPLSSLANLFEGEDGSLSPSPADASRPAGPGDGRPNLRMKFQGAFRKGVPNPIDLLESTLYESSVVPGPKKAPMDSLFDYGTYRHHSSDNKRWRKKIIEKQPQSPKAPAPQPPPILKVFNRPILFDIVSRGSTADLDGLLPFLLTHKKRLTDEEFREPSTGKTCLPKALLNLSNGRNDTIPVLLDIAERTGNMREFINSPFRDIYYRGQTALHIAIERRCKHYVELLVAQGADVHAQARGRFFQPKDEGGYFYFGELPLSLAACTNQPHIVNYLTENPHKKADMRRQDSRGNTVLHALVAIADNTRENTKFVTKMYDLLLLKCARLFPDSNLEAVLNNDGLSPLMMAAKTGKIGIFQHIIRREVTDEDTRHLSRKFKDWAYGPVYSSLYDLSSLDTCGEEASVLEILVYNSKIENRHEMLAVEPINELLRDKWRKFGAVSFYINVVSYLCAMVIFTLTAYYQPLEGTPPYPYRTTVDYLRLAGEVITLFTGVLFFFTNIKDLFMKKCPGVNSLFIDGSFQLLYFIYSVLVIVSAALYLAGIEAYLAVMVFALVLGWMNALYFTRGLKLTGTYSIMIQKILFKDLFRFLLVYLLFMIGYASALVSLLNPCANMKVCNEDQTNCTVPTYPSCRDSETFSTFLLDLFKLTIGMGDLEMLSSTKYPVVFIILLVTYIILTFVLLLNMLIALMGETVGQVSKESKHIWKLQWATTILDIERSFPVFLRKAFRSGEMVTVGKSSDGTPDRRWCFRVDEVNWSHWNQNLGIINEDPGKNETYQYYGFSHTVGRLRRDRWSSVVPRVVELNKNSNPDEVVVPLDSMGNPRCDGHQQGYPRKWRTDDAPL

SMILES	IC50 [nM]
Cc1cnc(N2C[C@@]3(CCC[C@](C)(Cn4cnc5ccc(C#N)cc54)C3)OC2=O)c(Cl)c1 [Example 128, 1-(((5S,7S)-3-(3-chloro-5-methylpyridin-2-yl)-7-methyl-2-oxo-1-oxa-3-azaspiro[4.5]decan-7-yl)methyl)-1H-benzo[d]imidazole-6-carbonitrile]	0.1 to 10
CCc1cccnc1N1C[C@@]2(CCC[C@](C)(Cn3cnc4ccc(C#N)cc43)C2)OC1=O [Example 129, 1-(((5S,7S)-3-(3-ethylpyridin-2-yl)-7-methyl-2-oxo-1-oxa-3-azaspiro[4.5]decan-7-yl)methyl)-1H-benzo[d]imidazole-6-carbonitrile]	10 to 50
Cc1cnc(N2C[C@@]3(CCC[C@](C)(Cn4cnc5ccc(C#N)cc54)C3)OC2=O)c(C)n1 [Example 130, 1-(((5S,7S)-3-(3,5-dimethylpyrazin-2-yl)-7-methyl-2-oxo-1-oxa-3-azaspiro[4.5]decan-7-yl)methyl)-1H-benzo[d]imidazole-6-carbonitrile]	50 to 500
Cc1nc(C(F)(F)F)cnc1N1C[C@@]2(CCC[C@H](Cn3cnc4ccc(C#N)cc43)C2)OC1=O [Example 131, 1-(((5S,7S)-3-(3-methyl-5-(trifluoromethyl)pyrazin-2-yl)-2-oxo-1-oxa-3-azaspiro[4.5]decan-7-yl)methyl)-1H-benzo[d]imidazole-6-carbonitrile]	50 to 500
COc1ncc(N2C[C@@]3(CCC[C@](C)(Cn4cnc5ccc(C#N)cc54)C3)OC2=O)cc1C [Example 132, 1-(((5S,7S)-3-(6-methoxy-5-methylpyridin-3-yl)-7-methyl-2-oxo-1-oxa-3-azaspiro[4.5]decan-7-yl)methyl)-1H-benzo[d]imidazole-6-carbonitrile]	0.1 to 10
CC(C)(C#N)c1ccc(N2C[C@@]3(CCC[C@](C)(Cn4cnc5ccc(C#N)cc54)C3)OC2=O)cn1 [Example 133, 1-(((5S,7S)-3-(6-(2-cyanopropan-2-yl)pyridin-3-yl)-7-methyl-2-oxo-1-oxa-3-azaspiro[4.5]decan-7-yl)methyl]-1H-benzo[d]imidazole-6-carbonitrile]	0.1 to 10
CC(C)(C)c1ncc(N2C[C@@]3(CCC[C@](C)(Cn4cnc5ccc(C#N)cc54)C3)OC2=O)cn1 [Example 134, 1-(((5S,7S)-3-(2-(tert-butyl)pyrimidin-5-yl)-7-methyl-2-oxo-1-oxa-3-azaspiro[4.5]decan-7-yl)methyl)-1H-benzo[d]imidazole-6-carbonitrile]	0.1 to 10
COc1ccc(N2C[C@@]3(CCC[C@](C)(Cn4cnc5ccc(C#N)cc54)C3)OC2=O)nc1 [Example 135, 1-({(5S,7S)-7-methyl-3-[5-(methyloxy)-2-pyridinyl]-2-oxo-1-oxa-3-azaspiro[4.5]dec-7-yl}methyl)-1H-benzimidazole-6-carbonitrile]	50 to 500
CCOc1ccc(N2C[C@@]3(CCC[C@](C)(Cn4cnc5ccc(C#N)cc54)C3)OC2=O)nn1 [Example 136, 1-({(5S,7S)-3-[6-(ethyloxy)-3-pyridazinyl]-7-methyl-2-oxo-1-oxa-3-azaspiro[4.5]dec-7-yl}methyl)-1H-benzimidazole-6-carbonitrile]	50 to 500
C[C@]1(Cn2cnc3ccc(C#N)cc32)CCC[C@@]2(CN(c3ncccc3Cl)C(=O)O2)C1 [Example 137, 1-{[(5S,7S)-3-(3-chloro-2-pyridinyl)-7-methyl-2-oxo-1-oxa-3-azaspiro[4.5]dec-7-yl]methyl}-1H-benzimidazole-6-carbonitrile]	10 to 50
COc1cccnc1N1C[C@@]2(CCC[C@](C)(Cn3cnc4ccc(C#N)cc43)C2)OC1=O [Example 138, 1-({(5S,7S)-7-methyl-3-[3-(methyloxy)-2-pyridinyl]-2-oxo-1-oxa-3-azaspiro[4.5]dec-7-yl}methyl)-1H-benzimidazole-6-carbonitrile]	50 to 500
C[C@]1(Cn2cnc3ccc(C#N)cc32)CCC[C@@]2(CN(c3ccc(C(F)(F)F)nc3)C(=O)O2)C1 [Example 139, 1-({(5S,7S)-7-methyl-2-oxo-3-[6-(trifluoromethyl)-3-pyridinyl]-1-oxa-3-azaspiro[4.5]dec-7-yl}methyl)-1H-benzimidazole-6-carbonitrile]	0.1 to 10
Cc1ccc(N2C[C@@]3(CCC[C@](C)(Cn4cnc5ccc(C#N)cc54)C3)OC2=O)cn1 [Example 140, 1-(((5S,7S)-7-methyl-3-(6-methylpyridin-3-yl)-2-oxo-1-oxa-3-azaspiro[4.5]decan-7-yl)methyl)-1H-benzo[d]imidazole-6-carbonitrile]	50 to 500
COc1cc(OC)c(N2C[C@@]3(CCC[C@H](Cn4cnc5ccc(C#N)cc54)C3)OC2=O)cn1 [Example 141, 1-({(5S,7S)-3-[4,6-bis(methyloxy)-3-pyridinyl]-2-oxo-1-oxa-3-azaspiro[4.5]dec-7-yl}methyl)-1H-benzimidazole-6-carbonitrile]	10 to 50
CC(C)c1ccc(N2C[C@@]3(CCC[C@H](Cn4cnc5ccc(C#N)cc54)C3)OC2=O)cn1 [Example 142, 1-({(5S,7S)-3-[6-(1-methylethyl)-3-pyridinyl]-2-oxo-1-oxa-3-azaspiro[4.5]dec-7-yl}methyl)-1H-benzimidazole-6-carbonitrile]	10 to 50
COc1cc(C)c(N2C[C@@]3(CCC[C@](CO)(Cn4cnc5ccc(C#N)cc54)C3)OC2=O)cn1 [Example 143, 1-((7-(hydroxymethyl)-3-(6-methoxy-4-methylpyridin-3-yl)-2-oxo-1-oxa-3-azaspiro[4.5]decan-7-yl)methyl)-1H-benzo[d]imidazole-6-carbonitrile]	10 to 50
C[C@]1(Cn2cnc3ccc(C#N)cc32)CCC[C@@]2(CN(c3cnccc3C(F)(F)F)C(=O)O2)C1 [Example 144, 1-(((5S,7S)-7-methyl-2-oxo-3-(4-(trifluoromethyl)pyridin-3-yl)-1-oxa-3-azaspiro[4.5]decan-7-yl)methyl)-1H-benzo[d]imidazole-6-carbonitrile]	0.1 to 10

More lines, now with the values ahead:

IC50 [nM]	SMILES
10 to 50	CN(C)c1ncc(N2C[C@@]3(CCC[C@](C)(Cn4cnc5ccc(C#N)cc54)C3)OC2=O)cn1 [Example 145, 1-(((5S,7S)-3-(2-(dimethylamino)pyrimidin-5-yl)-7-methyl-2-oxo-1-oxa-3-azaspiro[4.5]decan-7-yl)methyl)-1H-benzo[d]imidazole-6-carbonitrile]
0.1 to 10	Cc1ccncc1N1C[C@@]2(CCC[C@](C)(Cn3cnc4ccc(C#N)cc43)C2)OC1=O [Example 146, 1-(((5S,7S)-7-methyl-3-(4-methylpyridin-3-yl)-2-oxo-1-oxa-3-azaspiro[4.5]decan-7-yl)methyl)-1H-benzo[d]imidazole-6-carbonitrile]
0.1 to 10	CC(C)(O)c1cnc(N2C[C@@]3(CCC[C@](C)(Cn4cnc5ccc(C#N)cc54)C3)OC2=O)cn1 [Example 147, 1-(((5S,7S)-3-(5-(2-hydroxypropan-2-yl)pyrazin-2-yl)-7-methyl-2-oxo-1-oxa-3-azaspiro[4.5]decan-7-yl)methyl)-1H-benzo[d]imidazole-6-carbonitrile]
10 to 50	CC(C)(O)c1ncc(N2C[C@@]3(CCC[C@](C)(Cn4cnc5ccc(C#N)cc54)C3)OC2=O)cn1 [Example 148, 1-(((5S,7S)-3-(2-(2-hydroxypropan-2-yl)pyrimidin-5-yl)-7-methyl-2-oxo-1-oxa-3-azaspiro[4.5]decan-7-yl)methyl)-1H-benzo[d]imidazole-6-carbonitrile]
50 to 500	COc1ccncc1N1C[C@@]2(CCC[C@](C)(Cn3cnc4ccc(C#N)cc43)C2)OC1=O [Example 149, 1-(((5S,7S)-3-(4-methoxypyridin-3-yl)-7-methyl-2-oxo-1-oxa-3-azaspiro[4.5]decan-7-yl)methyl)-1H-benzo[d]imidazole-6-carbonitrile]
50 to 500	CN(C)c1cnc(N2C[C@@]3(CCC[C@](C)(Cn4cnc5ccc(C#N)cc54)C3)OC2=O)cn1 [Example 150, 1-(((5S,7S)-3-(5-(dimethylamino)pyrazin-2-yl)-7-methyl-2-oxo-1-oxa-3-azaspiro[4.5]decan-7-yl)methyl)-1H-benzo[d]imidazole-6-carbonitrile]
50 to 500	N#Cc1ccc2ncn(C[C@H]3CCC[C@]4(C3)CN(Cc3csc5ncccc35)C(=O)O4)c2c1 [Example 151, 1-{[(5S,7S)-2-oxo-3-(thieno[2,3-b]pyridin-3-ylmethyl)-1-oxa-3-azaspiro[4.5]dec-7-yl]methyl}-1H-benzimidazole-6-carbonitrile]
0.1 to 10	N#Cc1ccc2ncn(C[C@H]3CCC[C@]4(C3)CN(Cc3sc5ncccc5c3Br)C(=O)O4)c2c1 [Example 153]
0.1 to 10	COC(C)c1noc(C(C)(C)CN2C[C@@]3(CCC[C@H](Cn4cnc5ccc(C#N)cc54)C3)OC2=O)n1 (stereo partly drawn) [Example 154, 1-{[(5S,7S)-3-(2-methyl-2-{3-[1-(methyloxy)ethyl]-1,2,4-oxadiazol-5-yl}propyl)-2-oxo-1-oxa-3-azaspiro[4.5]dec-7-yl]methyl}-1H-benzimidazole-6-carbonitrile]
0.1 to 10	CCOc1cnc(CN2C[C@@]3(CCC[C@](C)(Cn4cnc5ccc(C#N)cc54)C3)OC2=O)cn1 [Example 155]
0.1 to 10	CCOc1ccnc(CN2C[C@@]3(CCC[C@](C)(Cn4cnc5ccc(C#N)cc54)C3)OC2=O)c1 [Example 156, 1-(((5S,7S)-3-((4-ethoxypyridin-2-yl)methyl)-7-methyl-2-oxo-1-oxa-3-azaspiro[4.5]decan-7-yl)methyl)-1H-benzo[d]imidazole-6-carbonitrile]
0.1 to 10	C[C@]1(Cn2cnc3ccc(C#N)cc32)CCC[C@@]2(CN(Cc3ccc(F)cn3)C(=O)O2)C1 [Example 159, 1-(((5S,7S)-3-((5-fluoropyridin-2-yl)methyl)-7-methyl-2-oxo-1-oxa-3-azaspiro[4.5]decan-7-yl)methyl)-1H-benzo[d]imidazole-6-carbonitrile]
0.1 to 10	Cn1cc(-c2ccnc(CN3C[C@@]4(CCC[C@](C)(Cn5cnc6ccc(C#N)cc65)C4)OC3=O)c2)cn1 [Example 160, 1-(((5S,7S)-7-methyl-3-((4-(1-methyl-1H-pyrazol-4-yl)pyridin-2-yl)methyl)-2-oxo-1-oxa-3-azaspiro[4.5]decan-7-yl)methyl)-1H-benzo[d]imidazole-6-carbonitrile]
